Results reported in ChEMBL document CHEMBL5543118, “Optimization of Potent Ligands for the E3 Ligase DCAF15 and Evaluation of Their Use in Heterobifunctional Degraders” (J Med Chem, 2024).
Active and inactive are the calls of the source. The rule behind the calls is not given here.

How the values were obtained:
[1] = Lipophilicity, logD of the compound in octanol/water at pH 7.4 by shake flask method; assay type: physicochemical
[2] = Binding affinity to human His6-HALO-TEV DCAF15/DDB1/DDA1 complex assessed as displacement of fluorophore tagged indisulam analogue from complex measured after 1 hr by TR-FRET assay
HEK293 = experiment: Cytotoxicity against human HEK293 cells expressing HiBiT tag-BRD4 assessed as cell viability at 10 uM measured after 24 hrs; assay type: toxicity, cell-based; details: hek293, 24 h
[3] = biological target: DDB1- and CUL4-associated factor 15/RNA-binding protein 39 (Homo sapiens) (UniProt Q14498+Q66K64); experiment: PROTAC activity at RBM39/DCAF15 E3 ligase (unknown origin) assessed as degradation at 0.1 to 10 uM by Western blotting analysis; assay type: cell-based; details: HEK293, dose 0.1-10 µM
[4] = biological target: T1, Bromodomain-containing protein 4/DDB1- and CUL4-associated factor 15 (Homo sapiens, UniProt O60885+Q66K64); experiment: PROTAC activity at HiBiT tag-BRD4/DCAF15 E3 ligase (unknown origin) expressed in HEK293 cells in presence of (+)-JQ1 incubated for 24 hrs by HiBit degradation assay; assay type: cell-based
[5] = biological target: T1, Bromodomain-containing protein 4/DDB1- and CUL4-associated factor 15; experiment: PROTAC activity at BRD4/DCAF15 E3 ligase (unknown origin) assessed as maximal degradation incubated for 16 hrs by immunoblot analysis relative to control; assay type: protein assay
[6] = biological target: T1, Bromodomain-containing protein 4/DDB1- and CUL4-associated factor 15; experiment: PROTAC activity at BRD4/DCAF15 E3 ligase (unknown origin) incubated for 16 hrs by immunoblot analysis; assay type: protein assay
[7] = biological target: T1, Bromodomain-containing protein 4/DDB1- and CUL4-associated factor 15; experiment: PROTAC activity at HiBiT tag-BRD4/DCAF15 E3 ligase (unknown origin) expressed in HEK293 cells assessed as maximal degradation incubated for 6 hrs by HiBit degradation assay relative to control; assay type: cell-based
[8] = biological target: T1, Bromodomain-containing protein 4/DDB1- and CUL4-associated factor 15; experiment: PROTAC activity at HiBiT tag-BRD4/DCAF15 E3 ligase (unknown origin) expressed in HEK293 cells incubated for 6 hrs by HiBit degradation assay; assay type: cell-based
[9] = Aqueous solubility of the compound in DMSO measured for 20 to 24 hrs; assay type: physicochemical; details: time 20-24 hrs
[10] = biological target: T1, Bromodomain-containing protein 4/DDB1- and CUL4-associated factor 15; experiment: PROTAC activity at HiBiT tag-BRD4/DCAF15 E3 ligase (unknown origin) expressed in HEK293 cells in presence of MLN4924 incubated for 24 hrs by HiBit degradation assay; assay type: cell-based

T1 sequence (Q66K64 whole entry, looked up, other chains not shown): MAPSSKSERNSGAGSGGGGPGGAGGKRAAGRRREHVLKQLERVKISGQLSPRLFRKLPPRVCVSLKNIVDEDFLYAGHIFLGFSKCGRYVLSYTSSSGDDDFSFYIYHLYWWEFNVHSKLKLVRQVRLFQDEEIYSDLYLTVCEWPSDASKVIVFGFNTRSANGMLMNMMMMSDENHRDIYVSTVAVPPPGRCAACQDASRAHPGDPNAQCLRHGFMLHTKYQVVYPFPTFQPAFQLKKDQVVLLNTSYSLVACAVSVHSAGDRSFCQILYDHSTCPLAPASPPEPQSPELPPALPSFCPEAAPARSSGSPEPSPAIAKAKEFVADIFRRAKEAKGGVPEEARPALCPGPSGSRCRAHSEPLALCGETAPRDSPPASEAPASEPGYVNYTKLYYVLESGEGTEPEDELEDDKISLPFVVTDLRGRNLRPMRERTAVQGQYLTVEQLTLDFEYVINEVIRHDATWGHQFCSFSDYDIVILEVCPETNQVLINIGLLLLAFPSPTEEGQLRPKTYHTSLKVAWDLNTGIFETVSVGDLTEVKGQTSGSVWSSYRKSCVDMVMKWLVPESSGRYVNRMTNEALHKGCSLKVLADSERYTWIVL
DDB1- and CUL4-associated factor 15/RNA-binding protein 39 (Homo sapiens), sequence (Q14498 whole entry, looked up): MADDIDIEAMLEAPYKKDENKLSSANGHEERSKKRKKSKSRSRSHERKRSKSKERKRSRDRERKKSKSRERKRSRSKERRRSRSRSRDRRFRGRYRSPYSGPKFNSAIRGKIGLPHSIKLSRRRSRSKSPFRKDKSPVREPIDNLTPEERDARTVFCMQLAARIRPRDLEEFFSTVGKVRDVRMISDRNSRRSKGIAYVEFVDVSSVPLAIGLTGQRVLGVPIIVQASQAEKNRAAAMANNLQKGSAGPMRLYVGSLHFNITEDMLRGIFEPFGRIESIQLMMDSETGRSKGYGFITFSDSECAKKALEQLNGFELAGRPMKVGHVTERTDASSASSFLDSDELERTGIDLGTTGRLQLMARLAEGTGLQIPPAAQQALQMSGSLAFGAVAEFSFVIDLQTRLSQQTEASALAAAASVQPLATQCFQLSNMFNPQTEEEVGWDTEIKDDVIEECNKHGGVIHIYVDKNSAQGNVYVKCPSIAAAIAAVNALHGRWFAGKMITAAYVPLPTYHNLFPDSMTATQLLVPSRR
DDB1- and CUL4-associated factor 15/RNA-binding protein 39 (Homo sapiens), sequence (Q66K64 whole entry, looked up): as the sequence (Q66K64 whole entry, looked up, other chains not shown) above

| SMILES | logD [1] | IC50 [2] [nM] | other results |
| --- | --- | --- | --- |
| CN(C)C(=O)c1oc(S(=O)(=O)Nc2ccc(Cl)c3c(Cl)c[nH]c23)cc1Cl | 2.3 | 395 |  |
| CNC(=O)C1CCN(C(=O)c2oc(S(=O)(=O)Nc3ccc(Cl)c4c(Cl)c[nH]c34)cc2C)CC1 | 2.1 | 53 | Activity (HEK293): Toxic; Activity [3]: inactive; Activity [4]: Active |
| N#Cc1cccc(S(=O)(=O)Nc2ccc(F)c3c(C#N)c[nH]c23)c1 | 2 | 7010 |  |
| Cc1sc(S(=O)(=O)Nc2ccc(Cl)c3c(Cl)c[nH]c23)nc1C(=O)N(C)C | 1.5 | 506 |  |
| CNC(=O)[C@@H]1CCN(C(=O)c2oc(S(=O)(=O)Nc3ccc(Cl)c4c(Cl)c[nH]c34)cc2C)C1 | 2 | 279 |  |
| Cc1cc(S(=O)(=O)Nc2ccc(Cl)c3c(Cl)c[nH]c23)oc1C(=O)N1CCN(C)CC1 | 2.2 | 393 |  |
| COCCNC(=O)c1oc(S(=O)(=O)Nc2ccc(Cl)c3c(Cl)c[nH]c23)cc1C | 2.8 | 505 |  |
| Cc1cc(S(=O)(=O)Nc2ccc(Cl)c3c(Cl)c[nH]c23)oc1C(=O)N1CCCCC1 | 3.6 | 46 |  |
| N#Cc1cccc(S(=O)(=O)Nc2ccc(Cl)c3c(Cl)c[nH]c23)c1 | 4 | 709 |  |
| Cc1sc2c(c1C)C(c1ccc(Cl)cc1)=N[C@@H](CC(=O)NCCOCCOCCNC(=O)c1cccc(S(=O)(=O)Nc3ccc(C)c4c(C#N)c[nH]c34)c1)c1nnc(C)n1-2 |  |  | Emax [5]: 98%; DC50 [6]: 10800 nM |
| CN(C)C(=O)c1ccc(S(=O)(=O)Nc2ccc(Cl)c3c(Cl)c[nH]c23)o1 | 2.3 | 675 |  |
| N#Cc1cccc(S(=O)(=O)Nc2cc(Cl)cc3c(Cl)c[nH]c23)c1 | 3.8 | 1460 |  |
| Cc1cc(S(=O)(=O)Nc2ccc(Cl)c3c(Cl)c[nH]c23)oc1C(=O)N1CCC(C(=O)N2CCN(CC3CCN(C(=O)C[C@@H]4N=C(c5ccc(Cl)cc5)c5c(sc(C)c5C)-n5c(C)nnc54)CC3)CC2)CC1 | > 4 | 74 | Emax [7]: 69%; DC50 [8]: 453 nM; solubility [9]: < 0.16 µM; Activity [10]: inactive |
| CNC(=O)C1CN(C(=O)c2oc(S(=O)(=O)Nc3ccc(Cl)c4c(Cl)c[nH]c34)cc2C)C1 | 1.9 | 979 |  |
| N#Cc1cccc(S(=O)(=O)Nc2ccc(C#N)c3c(Cl)c[nH]c23)c1 | 1.7 | 4390 |  |
| Cc1coc(S(=O)(=O)Nc2ccc(Cl)c3c(Cl)c[nH]c23)c1 | 3.7 | 1180 |  |
| CN(C)C(=O)c1nc(S(=O)(=O)Nc2ccc(Cl)c3c(Cl)c[nH]c23)cn1C | 2.2 | 842 |  |
| Cc1cc(S(=O)(=O)Nc2ccc(Cl)c3c(Cl)c[nH]c23)sc1C(=O)N(C)C | 3.1 | 224 |  |
| COc1ccc(NS(=O)(=O)c2cccc(C#N)c2)c2[nH]cc(C#N)c12 | 2.2 | > 100000 |  |
| N#Cc1cccc(S(=O)(=O)Nc2ccc(Cl)c3c(C#N)c[nH]c23)c1 | 2.4 | 1550 |  |
| Cc1sc(S(=O)(=O)Nc2ccc(Cl)c3c(Cl)c[nH]c23)cc1C(=O)N(C)C | 3 | 615 |  |
| CNC(=O)c1oc(S(=O)(=O)Nc2ccc(Cl)c3c(Cl)c[nH]c23)cc1C | 2.9 | 576 |  |
| CNC(=O)[C@H]1CCN(C(=O)c2oc(S(=O)(=O)Nc3ccc(Cl)c4c(Cl)c[nH]c34)cc2C)C1 | 2 | 692 |  |
| Cc1ccc(NS(=O)(=O)c2cccc(C#N)c2)c2[nH]cc(C#N)c12 [E-7820] | 2.6 | 2320 |  |
| Cc1cc(S(=O)(=O)Nc2ccc(Cl)c3c(Cl)c[nH]c23)oc1C(=O)N(C)C | 2.7 | 221 |  |
